test: Human HepG2 cell viability assay in 384 well format; assay type: toxicity, cell-based; parameters: dose 125 nL, time 70.5 hour; cytotoxicity at 70.5 h: concentration not given beside the values; conditions: HepG2 cells, read-out: Inhibition

Compound | cytotoxicity at 70.5 h
CN(C)c1cc(CNC(=O)c2ccccc2Cl)ccn1 | 1.6%
CCOc1ncccc1NC(=O)C1CCS(=O)(=O)C1 (stereo unspecified) | 0.736%
CC(Cn1ccnc1)NC(=O)N(C)Cc1ccc2c(c1)OCCO2 (stereo unspecified) | 26.7%
CN1C(=O)Cc2cc(-c3csc(CCN4CCOC4=O)n3)ccc21 | 6.81%
CC(Cn1ccnc1)NC(=O)Cc1ccc2c(c1)OCCO2 (stereo unspecified) | -0.766%
COc1ccc(CC(=O)NC2CCN(CC(F)F)CC2)cc1OC | 0.793%
O=C(NCc1cc[nH]n1)NCC(O)c1ccc(F)c(F)c1 (stereo unspecified) | 1.18%
CC(c1cc(F)ccc1F)N1CCN(Cc2nccn2C)CC1 (stereo unspecified) | 2.5%
CC(O)CN1CCN(C(=O)c2ccc(N3CCCC3)nn2)CC1 (stereo unspecified) | 1.72%
Cc1csc(NC(=O)CN2CCc3c(nc(C4CC4)n3C)C2)n1 | -1.68%
CCc1nc(CN(C)C2CCN(CCc3ccncc3)C2)no1 (stereo unspecified) | -1.6%
Cc1nc(CNC(=O)N(CCCO)C2CCc3ccccc32)oc1C (stereo unspecified) | -1.03%
Cc1nccc(CNC(=O)N(CCCO)C2CCc3ccccc32)n1 (stereo unspecified) | 30.5%
CCc1[nH]ncc1C(=O)N1CCCC(n2cc(C)cn2)C1 (stereo unspecified) | -5.59%
CCc1ncc2c(n1)CN(CCCc1nc3ccccc3o1)CC2 | 0.768%
Cc1ncc(CNC(=O)N(CCCO)C2CCc3ccccc32)s1 (stereo unspecified) | -5.3%
Cc1nc(C)n(C2CCCN(C(=O)c3c(C)nn4cccnc34)C2)n1 (stereo unspecified) | 20.7%
Cc1csc(C2CCCN(C(=O)c3c(C)nn4cccnc34)C2)n1 (stereo unspecified) | -4.25%
Cc1ccc(NC2CCN(C(=O)c3cccc4c3ccn4C)CC2)nn1 | -3.5%
Cc1nn2cccnc2c1C(=O)N1CCCC(n2cccn2)C1 (stereo unspecified) | 17.9%
O=C(c1cnn2cccnc12)N1CCCC(n2ccnc2)C1 (stereo unspecified) | -3.58%
Cc1noc(C)c1CS(=O)(=O)CC(=O)N1CCc2sccc2C1 | -3.02%
CC(NC(=O)NCCCn1cncn1)c1ccccc1F (stereo unspecified) | -4.63%
Cc1csc(N2CCCN(CCC(=O)NC(N)=O)CC2)n1 | -1.42%

Compound | cytotoxicity at 70.5 h
c1ccc(Cc2noc(CN3CCOC(Cn4cccn4)C3)n2)cc1 (stereo unspecified) | -3.64%
CCCc1nc(CN2CCOC(Cn3cccn3)C2)no1 (stereo unspecified) | -1.75%
c1ccc2oc(CCCN3CCc4cncnc4C3)nc2c1 | -2.93%
CC(C)c1nnc2n1CCN(C(=O)c1ccc(N(C)C)nn1)C2 | 2.93%
Cc1nn2cccnc2c1C(=O)N1CCCC(n2ccnc2C)C1 (stereo unspecified) | -4.03%
CCc1[nH]ncc1C(=O)N1CCCC(n2ccnc2C)C1 (stereo unspecified) | -7.72%
Cc1ncc2c(n1)CN(CCCc1ccccc1)CC2 | 0.152%
Cc1ccc(NC2CCN(C(=O)c3nccc4ccccc34)CC2)nn1 | -4.93%
Cc1ccc(NC2CCN(C(=O)c3cccc4[nH]ncc34)CC2)nn1 | -4.9%
Cn1c(CNCC2CCCN2c2cccnn2)nc2ccccc21 (stereo unspecified) | -1.26%
Cc1ccc(NC2CCN(C(=O)c3cccnc3O)CC2)nn1 | 16.5%
c1ccc(Cn2ccnc2CNCC2CCCN2c2cccnn2)cc1 (stereo unspecified) | 4.91%
Cc1cnc(CN2CCCC2c2noc(C3CC3)n2)cn1 (stereo unspecified) | -6.3%
Cc1nc(C2CCCN2Cc2nccn2CC(F)(F)F)no1 (stereo unspecified) | -2.36%
CN(Cc1nnc(C2CC2)n1C)C1CCN(CCc2cnn(C)c2)C1 (stereo unspecified) | 39.7%
Cc1ccc(C(=O)N2CCN(Cc3ccccc3)CC2)n1C | 21%
Cc1cnc(CN(C)C2CCN(CCCc3cnn(C)c3)C2)o1 (stereo unspecified) | -8%
CCCc1nc(CN2CCCN(Cc3nccn3C)CC2)no1 | -14.9%
O=C(Cc1ccc(F)c(Br)c1)N1CCN(CCO)CC1 | -3.28%
Cc1nc(C)n(CC2CCCCN2Cc2cn3ccccc3n2)n1 (stereo unspecified) | -19.3%
CCN(CC(=O)NC1(C)CCS(=O)(=O)C1)Cc1ccc(OC)c(F)c1 (stereo unspecified) | -9.28%
Cc1cc(C(=O)N2CCN(Cc3ccsc3)CC2)n(C)n1 | -14.3%
CCc1sc(C(=O)N2CCC(Nc3ccc(C)nn3)CC2)cc1C | -14.5%
N#Cc1cccc(OCCN2CCn3c(nnc3C3CC3)C2)c1 | -11%

Compound | cytotoxicity at 70.5 h
Cc1nc(C)n(CC2CCCN(Cc3cn4c(C)cccc4n3)C2)n1 (stereo unspecified) | -11.6%
c1ccc2cc(OCCCN3CCn4c(nnc4C4CC4)C3)ccc2c1 | -6.02%
CN(CC(=O)NC1(C)CCS(=O)(=O)C1)Cc1ccc(Br)cc1 (stereo unspecified) | 7.79%
COc1ccc(C(=O)NCCNC(=O)c2scnc2Cl)cc1 | -2.78%
Cc1ccc(C(=O)N2CCN(Cc3ccc(C#N)cc3)CC2)n1C | -2.38%
Cc1ccc(-c2nc(CN3CCn4c(C)nnc4C3)co2)cc1 | -6.98%
COc1ncccc1NC(=O)c1cccc(C)n1 | -7.22%
COc1ccc(CNCc2ccc(N3CCCCC3)nc2)cc1OC | -4.42%
CCC(NC(=O)c1ccco1)c1ccccc1OCC(=O)N1CCCC1 (stereo unspecified) | -6.16%
CCC(NC(=O)CC(F)(F)F)c1ccccc1OCC(=O)N1CCCC1 (stereo unspecified) | -7.99%
COc1ncccc1CNC(=O)c1cccnc1O | -8.53%
CCOC1CCCN(C(=O)c2sccc2-n2cnnn2)C1 (stereo unspecified) | -2.74%
O=C(O)c1cc(S(=O)(=O)N2CCOc3ccccc32)ccc1F | 0.682%
Cc1nn(C)c(N(C)C)c1CNCCCN(C)S(C)(=O)=O | -6.18%
CS(=O)(=O)Cc1cccc(C(=O)N2CCCC(n3cccn3)C2)c1 (stereo unspecified) | 17.8%
c1csc(-c2nc(CNC3CCc4ncnn4C3)cs2)c1 (stereo unspecified) | -16.5%
c1nc2n(n1)CC(NCc1csc(-c3ccsc3)n1)CC2 (stereo unspecified) | -17.5%
CCc1nnc2n1CCN(Cc1nc(-c3ccoc3)no1)C2 | -7.66%
CN(C)c1cc(C(=O)N2CCCC(n3cccn3)C2)ccn1 (stereo unspecified) | -11.4%
O=C(NCCOc1ccc(Cl)cc1)N1CCS(=O)(=O)CC1 | 9.92%
Cc1ccc2oc(C(=O)N3CCC(C(=O)N4CCCC4)CC3)cc2n1 | -14.6%
Cc1c(F)cc(C(=O)O)cc1S(=O)(=O)Nc1cccc(C(F)F)c1 | -10.3%
Cc1cc(C)c(OCC(=O)NS(=O)(=O)c2c(C)noc2C)c(C)c1 | 12.1%
COCc1nc(C(=O)NS(=O)(=O)c2cc(F)ccc2F)cs1 | 20.7%

Compound | cytotoxicity at 70.5 h
O=C(CN1CCCS1(=O)=O)NCCOc1ccc2c(c1)CCC2 | 5.58%
Cc1cc(CNc2cc(Cl)ccc2OCCS(C)(=O)=O)no1 | 13.3%
Cc1n[nH]c(C)c1C1COCCN1C(=O)c1cc(Cl)c[nH]1 (stereo unspecified) | -5.39%
CN(Cc1ccccc1)CC(O)Cn1cnc2ccccc2c1=O (stereo unspecified) | 6.62%
Clc1ccccc1-c1nc(CNC2CCc3ncnn3C2)cs1 (stereo unspecified) | -1.51%
CCc1ncc(C(=O)N2CCOCC2c2c(C)n[nH]c2C)s1 (stereo unspecified) | -2.25%
Cc1ccc(Cl)cc1N1CCC(CNC(=O)CCn2ccnn2)C1 (stereo unspecified) | -6.67%
Cc1cccn2cc(CC(=O)N3CCCC(n4cncn4)C3)nc12 (stereo unspecified) | -3.85%
c1ccc(OC2CCCC2)c(CNC2CCc3ncnn3C2)c1 (stereo unspecified) | 1.21%
O=C(c1ccc(OCC2CC2)nc1)N1CCCC(n2cncn2)C1 (stereo unspecified) | -12.6%
Cc1ccc(Cl)cc1N1CCC(CNC(=O)CCn2ccnc2)C1 (stereo unspecified) | -10.1%
NC(=O)C1CCN(C(=O)c2cccc(OCc3cscn3)c2)CC1 | -12.5%
O=C(c1ccc2c(c1)OCO2)N1CCN(c2cnccn2)CC1 | -3.98%
COc1cccc(-n2nnc(C(=O)N3CCCC3)c2C)c1 | -13.2%
O=C(NCCCn1ccnc1)N1CCCC1c1cccs1 (stereo unspecified) | -2.86%
O=C(NCCc1cccnc1)N1CCCC1c1ccsc1 (stereo unspecified) | -0.435%
Cc1noc(C)c1CN(C)C(=O)NC1CCN(c2ncccn2)CC1 | 35.3%
CN(C)c1cc(C(=O)N2CCN(c3cnccn3)CC2)ccn1 | -13.9%
CCN(CC1CCOC1)C(=O)Nc1ccc(-n2cncn2)nc1 (stereo unspecified) | -9.69%
CC(Nc1cccc(CN2CCOC2=O)c1)C(=O)NC(N)=O (stereo unspecified) | 32%
CC(Nc1cccc(CN2CCOC2=O)c1)C(=O)N1CCNC1=O (stereo unspecified) | -6.02%
Cn1ccc(CN2CCC(NC(=O)NC3CCCCC3)CC2)cc1=O | -5.64%
CC(C)N(Cc1nc2c(cnn2C)c(=O)[nH]1)c1ccccc1 | 3.46%
CCOc1ccc(Cl)c(C(=O)NCc2ccc(C(=O)NC)cc2)n1 | 4.62%

Compound | cytotoxicity at 70.5 h
CN(Cc1ccccc1)C(=O)c1nc(S(C)(=O)=O)n2ccccc12 | 31.2%
Cc1cc(C2CCCN2CCCS(=O)(=O)c2ccccc2)no1 (stereo unspecified) | -4.85%
CC(C)CN(Cc1nc2c(cnn2C)c(=O)[nH]1)C(C)C | -2.34%
CCNC(=O)N1CCN(C(=O)c2cc(Cl)cc3cccnc23)CC1 | -9.51%
O=C(c1ccc(C(F)(F)F)nc1)N1CCCC(n2cncn2)C1 (stereo unspecified) | -1.03%
O=C(Nc1cccc(N2CCCC2)c1)C1CCCN1c1nccs1 (stereo unspecified) | -2.18%
CN(C)c1cc2c(nn1)CCN(C(=O)Cc1noc3ccccc13)C2 | 9.27%
Cc1nc(C)n(CC2CCCN2Cc2cn3ccsc3n2)n1 (stereo unspecified) | 3.39%
O=C1C(NCc2nnc3n2CCCC3)CCCN1c1cccc(F)c1 (stereo unspecified) | -3.38%
Cc1ccc(CCN2CCC(N(C)Cc3noc(C4CC4)n3)C2)cc1 (stereo unspecified) | 3.87%
CC(C)CC(CNC(=O)NCc1cc[nH]n1)N1CCOCC1 (stereo unspecified) | 39.4%
COc1cc(CNC(=O)C2CC(=O)N(C(C)C)C2)ccn1 (stereo unspecified) | -16.6%
O=C(Nc1nccs1)NC1CCN(Cc2ccccc2)C1 (stereo unspecified) | -8.23%
Cc1noc(C2CCN(C(=O)c3ccc(N(C)C)nc3)CC2)n1 | -29.1%
Cc1ccccc1-c1cc(C(=O)NCCN2CCCS2(=O)=O)[nH]n1 | -15.5%
CC(C)c1cc(C(=O)NCCN2CCCS2(=O)=O)n[nH]1 | -19.6%
Cc1noc(C2CCN(C(=O)CN(C)c3ccc(Cl)cn3)CC2)n1 | -20.9%
CN1CCN(c2cc(CNC(=O)c3ccc(=O)n(C)c3)ccn2)CC1 | -15.6%
COc1cc(C)nc(N2CCN(C(=O)CN(C)C3CC3)CC2)n1 | -4.51%
COc1cc(C)nc(N2CCN(C(=O)COCC(F)(F)F)CC2)n1 | -15.4%
